{"source": "paper PMC7187627", "about": "(Antimicrobial Agents and Chemotherapy, 2019)", "system": "gut microbiota", "experiment": "Fecal microbiome analysis by 16S rRNA gene sequencing", "type": "in vivo, human", "experimental": "Fecal microbiota profiles were measured for each sample as each operational taxonomic unit (OTU) species present and the relative abundance of that species, based on a region of 469 bp encompassing the V3 and V4 hypervariable regions of the 16S rRNA gene, following protocols developed at the Department of Microbiology and Immunology, University of Maryland School of Medicine Institute for Genome Sciences, Baltimore, MD ([40][–][42]).\n(i) Sample collection and storage and DNA extraction. Fecal samples were collected at nine time points during the study for fecal microbiome analysis: twice before the first dose, on days 1, 4, 7, 9, and 12, and approximately 24 h prior to follow-up visits on day 18 and day 29. The subject was allowed to collect and bring the first fecal sample when admitted (collected within 24 h of admission and kept refrigerated until collected by staff). DNA was extracted from 150 mg of archived stool samples stored at –80°C for 16S rRNA gene amplification and sequencing. Cell lysis was initiated by adding 50 μl of lyzosyme (10 mg/ml), 6 μl of mutanolysin (25,000 U/ml; Sigma-Aldrich), and 3 μl of lysostaphin (4,000 U/ml in sodium acetate; Sigma-Aldrich) and 41 μl of TE50 buffer (10 mM Tris-HCl, 50 mM EDTA [pH 8.0]). Following a 1-h incubation at 37°C, 10 μl of proteinase K (20 mg/ml), 100 μl of 10% SDS, and 20 μl of RNase A (20 mg/ml) were added to the mixture and incubated for 1 h at 55°C. Microbial cells were lysed by mechanical disruption using a bead beater (FastPrep instrument; Qbiogene) set at 6.0 m/s for 30 s. DNA was purified from the lysate using the QIAsymphony robotics platform, consistently providing between 5 and 20 μg of high-quality and amplifiable whole genomic DNA. Following DNA quantitation via the Quant-iTTM PicoGreen double-stranded DNA (dsDNA) assay kit (Life Technologies), samples were diluted to a 5-ng/μl concentration.\nPCRs with dually barcoded 16S rRNA universal primers (319F/806R) were set up using a semiautomated platform with a ViaFlo 96 high-performance 96-channel pipettor and performed on Bio-Rad Tetrad 2 instruments with up to 576 dual index barcoding ([40]). […] The cycling parameters were 30 s of denaturation at 98°C, followed by 30 cycles of 15 s at 98°C (denaturing), 15 s at 58°C (annealing), and 15 s at 72°C (elongation), with a final extension at 72°C for 60 s. Controls included a no-template control for each barcode combination, extraction controls, and a DNA sample of known composition (positive control). The presence of amplicons was confirmed by gel electrophoresis on a 2% E-gel 96. PCR products were normalized using the SequalPrep normalization kit (Life Technologies, Carlsbad, CA) and pooled in equimolar amounts (25 ng) in a single tube. Amplification primers and reaction buffer were removed from the pooled amplicon mixtures using an AMPure kit (Agencourt). The purified amplicon mixtures (up to 576 per pool) were sequenced on an Illumina MiSeq instrument using the 300-bp paired-end protocol (MiSeq 300PE) at the Genomics Resource Center (GRC) at the Institute for Genome Sciences, University of Maryland School of Medicine.\n(iii) Bioinformatic analysis. For sequence quality control, assembly, and taxonomic assignments, a custom bioinformatics pipeline ([40]) was applied that relies on QIIME software ([43]), UCHIME ([44]), and the RDP Naïve Bayesian classifier ([45]). Baseline for fecal microbiome assessments was defined as the mean of the predose assessments on day 1. Presence was defined as positive abundance. The presence of each OTU species and the shift in presence/absence occurrence from baseline were tabulated by treatment. Shifts were categorized as no change, appearance, and disappearance.\nAdditional 16S rRNA data analysis was performed at the Division of Biomedical Informatics and Personalized Medicine, University of Colorado. Joined and quality-filtered sequences sharing >97% sequence similarity were binned as OTUs. […]", "note": "Entries after “also recorded” stand apart in the source; their conditions may differ.", "data": [{"compound": "O=c1cc(NCCCN[C@@H]2CCOc3c(Br)cc(Br)cc32)[nH]c2ccsc12", "note": "[CRS3123]", "values": [{"measurement": "median weighted UniFrac distance to placebo arm (community composition)", "setting": "200 mg, day 9, P = 0.006", "value": 0.361}, {"measurement": "proteobacteria, maximum relative abundance", "setting": "200 mg, pretreatment value 0.8%", "value": 1.6, "unit": "%"}, {"measurement": "median weighted UniFrac distance to placebo arm (community composition)", "setting": "400 mg, day 9, P = 0.027", "value": 0.440}, {"measurement": "median weighted UniFrac distance to placebo arm (community composition)", "setting": "400 mg, day 29, P = 0.177", "value": 0.4480}, {"measurement": "proteobacteria, relative abundance", "setting": "600 mg", "value": "< 10", "unit": "%"}, {"measurement": "median weighted UniFrac distance to placebo arm (community composition)", "setting": "600 mg, day 9, P = 0.013", "value": 0.663}, {"measurement": "median weighted UniFrac distance to placebo arm (community composition)", "setting": "600 mg, day 29, P = 0.077", "value": 0.470}, {"measurement": "increase in proteobacteria", "setting": "200-mg and 400-mg doses", "value": "did not see an increase"}, {"measurement": "proportion of the major phyla in stool over time", "setting": "200-mg dosing group, not different from placebo", "value": "minimal changes over time"}, {"measurement": "relative abundance of Firmicutes", "setting": "400-mg- and 600-mg-BID dosing groups, Bacteroidetes and Actinobacteria increased", "value": "decreased"}, {"measurement": "changes in highly abundant intestinal genera", "setting": "after 9 days of twice-daily dosing, exception target genus Clostridium", "value": "no significant changes"}, {"measurement": "loss of phyla during treatment", "setting": "any dose", "value": "no phyla were lost"}, {"measurement": "time until composition was back to baseline levels after stopping the treatment", "setting": "any dose", "value": "≤ 7", "unit": "days"}, {"measurement": "effect on commensal anaerobes (Bacteroides, bifidobacteria, Clostridium clusters XIVa and IV)", "setting": "stool microbiome of healthy subjects", "value": "inactive; also recorded: did not impact"}, {"measurement": "percentage of subjects with Clostridium species isolated at baseline but not at subsequent visits", "setting": "treatment phase, day 1 through day 10, versus placebo", "value": "greater in the CRS3123 treatment groups than in the placebo group"}, {"measurement": "disruption of normal gut microbiota", "setting": "two lower doses (200, 400 mg), 10 days twice daily", "value": "minimal disruption"}]}]}
